Among the data in patent US8268881B2, “Carboxamide derivatives as muscarinic receptor antagonists” (Pfizer Limited, priority 2005, dated 2012) are Ki values, retold here.

The structures appear in SMILES notation. pKi: −log10 of the molar value.

One may read the pKi as the Ki on a negative log10 scale, so that one unit is a factor of ten.

T1 sequence (P20309 whole entry): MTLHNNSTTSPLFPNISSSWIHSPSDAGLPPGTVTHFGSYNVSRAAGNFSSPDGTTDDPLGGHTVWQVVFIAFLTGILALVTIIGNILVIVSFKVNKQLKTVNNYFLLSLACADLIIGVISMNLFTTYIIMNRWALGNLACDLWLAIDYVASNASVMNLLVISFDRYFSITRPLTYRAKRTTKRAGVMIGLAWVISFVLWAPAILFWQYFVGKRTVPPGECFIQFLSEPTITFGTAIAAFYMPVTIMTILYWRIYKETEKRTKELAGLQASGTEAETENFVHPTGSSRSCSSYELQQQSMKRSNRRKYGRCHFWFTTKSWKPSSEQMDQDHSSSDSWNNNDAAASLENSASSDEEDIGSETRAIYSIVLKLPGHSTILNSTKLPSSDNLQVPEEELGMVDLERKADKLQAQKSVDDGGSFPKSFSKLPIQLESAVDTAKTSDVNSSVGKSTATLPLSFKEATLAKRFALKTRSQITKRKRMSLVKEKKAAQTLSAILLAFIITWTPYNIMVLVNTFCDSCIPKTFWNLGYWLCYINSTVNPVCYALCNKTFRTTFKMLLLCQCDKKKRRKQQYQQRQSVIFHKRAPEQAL

The first experiment concerns the target T1, human muscarinic M3 receptor (Homo sapiens, UniProt P20309).
T1 construct: expressed in transfected cells
Description: hM3 β-Lac potency assay (cell based β-lactamase). The note with it: CHO cells expressing human M3 receptor, NFAT β-lactamase reporter; […]; IC50 converted to Ki by Cheng-Prusoff; read-out: Cell based β-lactamase M3 Ki.
Consider `CC(C)(CCC(C#N)(c1ccccc1)c1ccccc1)N1CC(OCc2ccc(O)cc2)C1` [Example 151, 5-{3-[(4-Hydroxybenzyl)oxy]azetidin-1-yl}-5-methyl-2,2-diphenylhexanenitrile], for which the pKi was 9.72.

Still in this experiment, the particulars now being: CHO cells expressing human M3 receptor, NFAT β-lactamase reporter; inhibition of 80 nM carbamyl choline signal, 4 h; IC50 converted to Ki by Cheng-Prusoff; read-out: Cell based β-lactamase M3 Ki.
Turning to `CC(C)(CCC(C(N)=O)(c1ccccc1)c1ccccc1)N1CC(OCc2ccccc2)C1` [Example 102, 5-[3-(Benzyloxy)azetidin-1-yl]-5-methyl-2,2-diphenylhexanamide], the pKi is 10.20. For the compound `CC(C)(CCC(C(N)=O)(c1ccccc1)c1ccccc1)N1CC(Oc2ccccc2)C1` [Example 104, 5-Methyl-5-(3-phenoxyazetidin-1-yl)-2,2-diphenylhexanamide], the pKi was 10.31. Same read-out and setting: as for `COc1ccc(OC2CN(C(C)(C)CCC(C#N)(c3ccccc3)c3ccccc3)C2)cc1` [Example 105, 5-[3-(4-Methoxyphenoxy)azetidin-1-yl]-5-methyl-2,2-diphenylhexanenitrile], the figure is 8.71; as for `CC(C)(CCC(C(N)=O)(c1ccccc1)c1ccccc1)N1CC(Oc2ccc(O)cc2)C1` [Example 107, 5-[3-(4-hydroxyphenoxy)azetidin-1-yl]-5-methyl-2,2-diphenylhexanamide], 9.88.

In the case of `CC(C)(CCC(C(N)=O)(c1ccccc1)c1ccccc1)N1CC(Oc2cccc(O)c2)C1` [Example 108, 5-[3-(3-Hydroxyphenoxy)azetidin-1-yl]-5-methyl-2,2-diphenylhexanamide], the negative logarithm of the Ki (pKi) is 9.70. The same measure, in the same setting: as for `CC(C)(CCC(C(N)=O)(c1ccccc1)c1ccccc1)N1CC(Oc2ccccc2O)C1` [Example 109, 5-[3-(2-Hydroxyphenoxy)azetidin-1-yl]-5-methyl-2,2-diphenylhexanamide], the figure is 7.97; as for `CC(C)(CCC(C(N)=O)(c1ccccc1)c1ccccc1)N1CC(Oc2cc(Cl)c(Cl)cc2O)C1` [Example 111, 5-{3-(4,5-Dichloro-2-hydroxy-phenoxy)-azetidin-1-yl}-5-methyl-2,2-diphenylhexanamide], 7.11; as for `COc1cc(OC2CN(C(C)(C)CCC(C(N)=O)(c3ccccc3)c3ccccc3)C2)ccc1Cl` [Example 113, 5-[3-(4-Chloro-3-methoxy-phenoxy)-azetidin-1-yl]-5-methyl-2,2-diphenylhexanamide], 8.14. As to `CC(C)(CCC(C(N)=O)(c1ccccc1)c1ccccc1)N1CC(Oc2ccc(Cl)c(O)c2)C1` [Example 114, 5-[3-(4-Chloro-3-hydroxy-phenoxy)-azetidin-1-yl]-5-methyl-2,2-diphenylhexanamide], the pKi is 8.71.

As to `CC(C)(CCC(C(N)=O)(c1ccccc1)c1ccccc1)N1CC(OCc2cccc(O)c2)C1` [Example 115, 5-[3-(3-Hydroxy-benzyloxy)-azetidin-1-yl]-5-methyl-2,2-diphenyl-hexanoic acid amide], the pKi is 9.75. Same read-out and setting: as for `CC(C)(CCC(C(N)=O)(c1ccccc1)c1ccccc1)N1CC(Oc2cc(O)ccc2Cl)C1` [Example 118, 5-[3-(2-Chloro-5-hydroxy-phenoxy)-azetidin-1-yl]-5-methyl-2,2-diphenyl-hexanoic acid amide], the figure is 7.39; as for `CC(C)(CCC(C(N)=O)(c1ccccc1)c1ccccc1)N1CC(Oc2cc(O)cc(F)c2)C1` [Example 121, 5-{3-(3-Fluoro-5-hydroxy-phenoxy)-azetidin-1-yl}-5-methyl-2,2-diphenylhexanamide], 9.22.

Take `CC(C)(CCC(C(N)=O)(c1ccccc1)c1ccccc1)N1CC(Oc2cc(O)cc(Cl)c2)C1` [Example 124, 5-[3-(3-Chloro-5-hydroxy-phenoxy)-azetidin-1-yl]-5-methyl-2,2-diphenylhexanamide]: the pKi is 9.65. Same read-out and setting: the value for `CC(C)(CCC(C(N)=O)(c1ccccc1)c1ccccc1)N1CC(Oc2ccc(F)cc2O)C1` [Example 127] was 6.96; that for `CC(C)(CCC(C(N)=O)(c1ccccc1)c1ccccc1)N1CC(OCc2c(Cl)ccc(O)c2Cl)C1` [Example 128, 5-[3-(2,6-Dichloro-3-hydroxy-benzyloxy)-azetidin-1-yl]-5-methyl-2,2-diphenyl-hexanoic acid amide] was 8.09. Take `CC(C)(CCC(C(N)=O)(c1ccccc1)c1ccccc1)N1CC(OCc2ccc(Cl)c(O)c2)C1` [Example 138, 5-[3-(4-Chloro-3-hydroxy-benzyloxy)-azetidin-1-yl]-5-methyl-2,2-diphenyl-hexanoic acid amide]: the pKi was 9.33. Turning to `NC(=O)C(CCC1(N2CC(Oc3ccc(Cl)c(O)c3)C2)CCCC1)(c1ccccc1)c1ccccc1` [Example 139, 4-{1-[3-(4-Chloro-3-hydroxy-phenoxy)-azetidin-1-yl]-cyclopentyl}-2,2-diphenyl-butyramide], the pKi was 8.27. `CC(C)(CCC(C(N)=O)(c1ccccc1)c1ccccc1)N1CC(Oc2cc(O)cc(Br)c2)C1` [Example 142, 5-[3-(3-Bromo-5-hydroxy-phenoxy)-azetidin-1-yl]-5-methyl-2,2-diphenyl-hexanoic acid amide]: the pKi was 8.09.

As to `NC(=O)C(CCC1(N2CC(Oc3ccc(O)c(F)c3)C2)CCCC1)(c1ccccc1)c1ccccc1` [Example 145, 4-{1-[3-(3-Fluoro-4-hydroxy-phenoxy)-azetidin-1-yl]-cyclopentyl}-2,2-diphenyl-butyramide], the pKi was 7.97. Same read-out and setting: the value for `CC(C)(CCC(C(N)=O)(c1ccccc1)c1ccccc1)N1CC(OCc2ccc(O)c(Cl)c2)C1` [Example 146, 5-[3-(3-Chloro-4-hydroxy-benzyloxy)-azetidin-1-yl]-5-methyl-2,2-diphenyl-hexanoic acid amide] was 9.61.

As for `CC(C)(CCC(C(N)=O)(c1ccccc1)c1ccccc1)N1CC(OCc2ccc(Cl)cc2O)C1` [Example 147, 5-[3-(4-Chloro-2-hydroxy-benzyloxy)-azetidin-1-yl]-5-methyl-2,2-diphenyl-hexanoic acid amide], the pKi is 7.48.

In the case of `CC(C)(CCC(C(N)=O)(c1ccccc1)c1ccccc1)N1CC(OCc2cccc(O)c2Cl)C1` [Example 148, 5-[3-(2-Chloro-3-hydroxy-benzyloxy)-azetidin-1-yl]-5-methyl-2,2-diphenyl-hexanoic acid amide], the pKi is 9.45.

As for `CC(C)(CCC(C(N)=O)(c1ccccc1)c1ccccc1)N1CC(Oc2cc(O)cc(O)c2)C1` [Example 149, 5-[3-(3,5-Dihydroxy-phenoxy)-azetidin-1-yl]-5-methyl-2,2-diphenyl-hexanoic acid amide], the pKi is 9.15. Still for that read-out and setting: the value for `CC(C)(CCC(C#N)(c1ccccc1)c1ccccc1)N1CC(Oc2cccc(O)c2)C1` [Example 150, 5-[3-(3-Hydroxy-phenoxy)-azetidin-1-yl]-5-methyl-2,2-diphenyl-hexanenitrile] was 8.98. Same read-out and setting: the value for `CC(C)(CCC(C(N)=O)(c1ccccc1)c1ccccc1)N1CC(OCc2ccc(O)cc2)C1` [Example 152, 5-[3-(4-Hydroxy-benzyloxy)-azetidin-1-yl]-5-methyl-2,2-diphenyl-hexanoic acid amide] was 9.64.
